Data on 3 molecules can be found in US10988523B2, “Modified lipidated Relaxin B chain peptides and their therapeutic use” (Sanofi, priority 2018, dated 2021).

What is called Emax is the size of the effect at its maximum, as opposed to the concentration needed. In general, EC50 refers to the concentration at which the effect is half-maximal.

The target of the experiment is T1, RXFP1 (Homo sapiens, UniProt Q9HBX9).
T1 construct: OVCAR5 cells expressing endogenous RXFP1; endogenous in cells; host or cells: OVCAR5 cells
T1 sequence (Q9HBX9 1-757): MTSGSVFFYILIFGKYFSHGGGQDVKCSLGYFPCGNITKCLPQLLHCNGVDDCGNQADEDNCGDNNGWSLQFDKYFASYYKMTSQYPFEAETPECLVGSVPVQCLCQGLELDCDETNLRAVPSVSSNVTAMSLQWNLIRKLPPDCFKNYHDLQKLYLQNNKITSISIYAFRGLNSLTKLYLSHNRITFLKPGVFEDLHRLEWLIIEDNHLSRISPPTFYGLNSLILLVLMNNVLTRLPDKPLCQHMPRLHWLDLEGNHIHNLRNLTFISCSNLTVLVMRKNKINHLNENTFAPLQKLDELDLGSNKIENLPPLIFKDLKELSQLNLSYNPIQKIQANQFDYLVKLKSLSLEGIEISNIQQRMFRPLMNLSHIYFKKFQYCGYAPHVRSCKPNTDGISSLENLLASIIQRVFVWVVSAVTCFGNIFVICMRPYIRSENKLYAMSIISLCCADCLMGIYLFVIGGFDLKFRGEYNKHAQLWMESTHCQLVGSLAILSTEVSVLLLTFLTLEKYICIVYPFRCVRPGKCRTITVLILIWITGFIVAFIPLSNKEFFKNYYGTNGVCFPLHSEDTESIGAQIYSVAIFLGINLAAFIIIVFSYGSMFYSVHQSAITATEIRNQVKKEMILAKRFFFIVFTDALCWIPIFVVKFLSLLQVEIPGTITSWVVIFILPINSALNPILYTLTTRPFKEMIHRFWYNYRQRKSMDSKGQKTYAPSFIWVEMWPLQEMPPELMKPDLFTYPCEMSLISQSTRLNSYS
Briefly: OVCAR5 cAMP assay (HTRF), RXFP1 agonist activity. Type of experiment: cell-based. As to conditions: for Emax: OVCAR-5, maximal cAMP relative to H2-relaxin maximum (100%), read-out: EMax, OVCAR 5 cells (cAMP). The gist of the method:
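OVCAR5 cells (endogenous RXFP1) pretreated 40 min at 37° C with 1 mM IBMX, then exposed to peptides in serum-free medium for 30 min at 37° C. Lysate cAMP read by HTRF; EC50 from variable-slope sigmoidal fit; Emax as % of H2-relaxin maximal cAMP in same run.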
A general note: cAMP levels reflect the balance of adenylyl cyclase and phosphodiesterase activity.

*1 amine or outer side, *2 acyl side, *3 side chain or, on linkers, in order; H or OH if unused. Where a SMILES comes first, the peptide text is derived from it. Side-chain parts run from the residue outwards. [ ]: non-standard residue; d: D form. The star is where a group is joined. Lys(Me3) = C[N+](C)(C)CCCC[C@H](N)C(=O)O; γGlu = O=C(O)[C@H](CCC(=O)[*:2])N[*:1]; Arg(Me) = CNC(=N)NCCC[C@H](N)C(=O)O; Stearoyl = CCCCCCCCCCCCCCCCCC(=O)*; αMeK = C[C@](N)(CCCCN)C(=O)O; Nle = CCCC[C@H](N)C(=O)O; AEEA = NCCOCCOCC(=O)O; Aib = CC(C)(N)C(=O)O

Consider `CCCCCCCCCCCCCCCCCC(=O)N[C@@H](CCC(=O)N[C@@H](CCC(=O)N[C@@H](CCC(=O)NCCOCCOCC(=O)NCCOCCOCC(=O)NCCOCCOCC(=O)NCCCC[C@H](NC(=O)[C@H](CCCCNC(C)=O)NC(=O)[C@H](CCCC[N+](C)(C)C)NC(=O)[C@H](CCCNC(=N)N)NC(=O)C(C)(C)NC(=O)[C@H](CO)NC(=O)[C@H](Cc1c[nH]c2ccccc12)NC(=O)[C@@H](NC(=O)[C@H](CO)NC(=O)[C@H](CCCC)NC(=O)CNC(=O)[C@H](CCC(=O)O)NC(=O)C(C)(C)NC(=O)C(C)(C)NC(=O)[C@@H](NC(=O)[C@H](CCCCNC(C)=O)NC(=O)[C@H](C)NC(=O)[C@H](CCCNC(=N)N)NC(=O)[C@@H](NC(=O)[C@H](CCCCN)NC(=O)[C@H](CCC(=O)O)NC(=O)[C@H](CCCNC(=N)N)NC(=O)CNC(=O)[C@H](CCC(=O)O)NC(=O)[C@H](CC(C)C)NC(C)=O)C(C)C)[C@@H](C)CC)[C@@H](C)O)C(N)=O)C(=O)O)C(=O)O)C(=O)O` [compound 134] (Ac-LEGREKVRAK(Ac)I[Aib][Aib]EG[Nle]STWS[Aib]R[Lys(Me3)]K(Ac)K([AEEA-AEEA-AEEA-γGlu-γGlu-γGlu-Stearoyl])-NH2), for which the Emax came to 100%.
Regarding `CCCCCCCCCCCCCCCCCC(=O)N[C@@H](CCC(=O)N[C@@H](CCC(=O)N[C@@H](CCC(=O)NCCOCCOCC(=O)NCCOCCOCC(=O)NCCOCCOCC(=O)NCCOCCOCC(=O)NCCCC[C@H](NC(=O)[C@H](CCCCNC(C)=O)NC(=O)[C@H](C)NC(=O)[C@H](CCCNC(=N)N)NC(=O)[C@](C)(CCCCN)NC(=O)[C@H](CO)NC(=O)[C@H](Cc1c[nH]c2ccccc12)NC(=O)[C@@H](NC(=O)[C@H](CO)NC(=O)[C@H](CCCC)NC(=O)CNC(=O)[C@H](CCC(=O)O)NC(=O)C(C)(C)NC(=O)C(C)(C)NC(=O)[C@@H](NC(=O)[C@H](CCCCNC(C)=O)NC(=O)[C@H](C)NC(=O)[C@H](CCCNC(=N)N)NC(=O)[C@@H](NC(=O)[C@H](CCCCN)NC(=O)[C@H](CCC(=O)O)NC(=O)[C@H](CCCNC(=N)N)NC(=O)CNC(=O)[C@H](CCC(=O)O)NC(=O)[C@H](CC(C)C)NC(C)=O)C(C)C)[C@@H](C)CC)[C@@H](C)O)C(N)=O)C(=O)O)C(=O)O)C(=O)O` [compound 135] (Ac-LEGREKVRAK(Ac)I[Aib][Aib]EG[Nle]STWS[αMeK]RAK(Ac)K([AEEA-AEEA-AEEA-AEEA-γGlu-γGlu-γGlu-Stearoyl])-NH2), the Emax was 97%.
Take `CCCCCCCCCCCCCCCCCC(=O)N[C@@H](CCC(=O)N[C@@H](CCC(=O)N[C@@H](CCC(=O)NCCOCCOCC(=O)NCCOCCOCC(=O)NCCOCCOCC(=O)NCCCC[C@H](NC(=O)[C@H](CCCCNC(C)=O)NC(=O)[C@H](CCCC[N+](C)(C)C)NC(=O)[C@H](CCCNC(=N)NC)NC(=O)C(C)(C)NC(=O)[C@H](CO)NC(=O)[C@H](Cc1c[nH]c2ccccc12)NC(=O)[C@@H](NC(=O)[C@H](CO)NC(=O)[C@H](CCCC)NC(=O)CNC(=O)[C@H](CCC(=O)O)NC(=O)C(C)(C)NC(=O)C(C)(C)NC(=O)[C@@H](NC(=O)[C@H](CCCCNC(C)=O)NC(=O)[C@H](C)NC(=O)[C@H](CCCNC(=N)N)NC(=O)[C@@H](NC(=O)[C@H](CCCCN)NC(=O)[C@H](CCC(=O)O)NC(=O)[C@H](CCCNC(=N)N)NC(=O)CNC(=O)[C@H](CCC(=O)O)NC(=O)[C@H](CC(C)C)NC(C)=O)C(C)C)[C@@H](C)CC)[C@@H](C)O)C(N)=O)C(=O)O)C(=O)O)C(=O)O` [compound 137] (Ac-LEGREKVRAK(Ac)I[Aib][Aib]EG[Nle]STWS[Aib][Arg(Me)][Lys(Me3)]K(Ac)K([AEEA-AEEA-AEEA-γGlu-γGlu-γGlu-Stearoyl])-NH2): the maximal effect (Emax) came out at 92%. In addition, the EC50 (OVCAR5 cells, cAMP HTRF, read-out: EC50 (nM), OVCAR 5 cells (cAMP)) was 0.21 nM.
